# Conditions: buffer; pH 7.4; 200.0 µM
row,SMILES,solubility kinetic
1,O=C(COC(=O)c1ccc(Cl)nc1)Nc1ccc(N2CCCCC2)cc1,10.9 µg/mL
2,CCOc1cc(N2CCOCC2)c(OCC)cc1NC(=O)c1cccc(S(=O)(=O)N2CCOCC2)c1,> 77.9 µg/mL
3,COC(=O)c1ccc(N2CCN(C(C)=O)CC2)c(NC(=O)c2cccnc2)c1,> 57.4 µg/mL
4,CN(C(=O)c1ccc(N2CCCCC2)c([N+](=O)[O-])c1)C1CCS(=O)(=O)C1 (stereo not given),> 57.2 µg/mL
5,N/C(=N\O)c1ccc([N+](=O)[O-])s1,> 28.1 µg/mL
6,O=c1c2ccccc2ncn1-c1cccc([N+](=O)[O-])c1,3.8 µg/mL
7,O=C(NCc1cccnc1)C(=O)C1C(=O)Nc2ccccc21 (stereo not given),42.5 µg/mL
8,COc1ccc(C2(CNS(=O)(=O)c3ccccc3)CCOCC2)cc1,46.6 µg/mL
9,COC(=O)CCC(=O)NNC(=O)Cc1ccccc1,> 39.6 µg/mL
10,Cc1nc2ccc(NC(=O)CSc3ccccc3)cc2s1,46 µg/mL
11,CCOC(=O)c1c(C)oc2c1c(C=NCCC(=O)O)c(O)c1ccccc12,< 0.8 µg/mL
12,Cc1cc(C(=O)N2CCCC(Nc3ccc(F)cc3)C2)n(C)n1 (stereo not given),> 47.5 µg/mL
13,Cc1ccccc1OCCCCn1c(CO)nc2ccccc21,29.2 µg/mL
14,CC(C)c1cc(=O)[nH]c(SCC(=O)NC2CCCC2)n1,> 44.3 µg/mL
15,CC(Cl)C(=O)c1c[nH]c2ccccc12 (stereo not given),21.4 µg/mL
16,CC(=O)N1CC(=O)N(c2ccccc2)C1=O,> 32.7 µg/mL
17,CCOc1ccc(C2=CSC3=NCCN23)cc1,22.9 µg/mL
18,Cc1cc(C)c(C)c(OCCCCN2CCCCC2)c1,29.4 µg/mL
19,CCCC(=O)N/C(N)=N/c1nc(C)c2ccccc2n1,15.3 µg/mL
20,CCOC(=O)c1csc(COc2ccc(OC)cc2)n1,11.3 µg/mL
21,CC(C)(C)OC(=O)N1CCN(CCNC(=O)c2ccccc2)CC1,> 50 µg/mL
22,COC(=O)c1scc(C)c1N1C(=O)c2ccccc2C1=O,4.2 µg/mL
23,COc1ccc(-c2ccc(S(=O)(=O)N3CCCC3)cc2)cc1,1.1 µg/mL
24,NC(=O)c1ccc(/C=N/O)[n+](Cc2ccccc2)c1.[Br-],33.9 µg/mL

row,SMILES,solubility kinetic
1,O=C(O)c1ccccc1NCCO,24 µg/mL
2,CCCNC(=O)CN1C(=O)NC(CCSC)C1=O (stereo not given),> 41 µg/mL
3,OCc1cc(-c2ccc(Cl)c(Cl)c2)on1,> 36.6 µg/mL
4,CC(C)CCNC(=O)C1(c2cccs2)CCOCC1,> 42.2 µg/mL
5,O=C(COC(=O)c1ccccc1Br)NCc1cccs1,> 53.1 µg/mL
6,CC(C)(C)C(=O)Nc1cc(NC(=O)C(C)(C)C)cc(C(=O)Nc2c[nH]c(=O)[nH]c2=O)c1,45.3 µg/mL
7,Cc1cc(C(=O)N(C)C2CCCCC2)no1,> 33.3 µg/mL
8,O=C(c1cccc(Cl)c1)N1CCn2c1nc1ccccc12,0.9 µg/mL
9,COCCCNC(=S)N1CCC(NC(=O)c2ccco2)CC1,> 48.8 µg/mL
10,Cc1cc(C)c(C)c(S(=O)(=O)N2CCN(C(=O)c3cc(S(=O)(=O)N4CCOCC4)ccc3F)CC2)c1C,12.7 µg/mL
11,COc1ccc(N2CCN(CC(=O)c3ccccc3)CC2)cc1,> 46.6 µg/mL
12,O=C(NC1CCCCC1)c1cccc(OCc2ccccc2)c1,0.8 µg/mL
13,Cc1c(C)c(C)c(S(=O)(=O)N2CCSCC2)c(C)c1C,1.5 µg/mL
14,Cc1ccc(OCCCCNC(C)c2ccccc2)c(C)c1 (stereo not given),32.2 µg/mL
15,Cn1ccnc1-c1ccc(-c2nccn2C)cc1,33.8 µg/mL
16,Cc1ccccc1C1NC(=S)NC2=C1C(=O)CCC2 (stereo not given),> 40.9 µg/mL
17,Cc1ccc(-c2nnc(SCC(=O)NC3CCCC3)n2N)cc1,> 49.7 µg/mL
18,N/C(=N\S(=O)(=O)c1cccs1)c1ccccc1Cl,> 45.1 µg/mL
19,OC(CN1CCN(c2cccc(Cl)c2)CC1)c1ccccc1 (stereo not given),16.1 µg/mL
20,CC(=O)c1sc(-c2cccc(Cl)c2)nc1C,3.1 µg/mL
21,Cc1ccc(S(=O)(=O)N2CCCCC2)cc1NC(=O)COc1ccccc1,4.3 µg/mL
22,Cc1c(C)c2ccc(OCC(=O)Nc3cccnc3)cc2oc1=O,1.3 µg/mL
23,COc1ccc(CC(=O)Nc2ccc(N3CCCC3)c(C)c2)cc1,8.9 µg/mL
24,CC(=O)c1ccccc1NC(=O)COC(=O)c1cc(C)oc1C,2.2 µg/mL

row,SMILES,solubility kinetic
1,Cc1c(C(=O)N(C)C(C)c2ccncn2)oc2c(F)cccc12 (stereo not given),> 47 µg/mL
2,COc1ccc(NC(=O)CN2C(=O)COc3ccccc32)cc1OC,3 µg/mL
3,Cc1occc1C(=O)O/N=C(\N)c1ccc(Cl)cc1,9.1 µg/mL
4,CCCOc1ccc(-c2nc[nH]c2[N+](=O)[O-])cc1,0.5 µg/mL
5,COc1ccc2c(c1)CC/C(=C/c1ccccn1)C2=O,38.5 µg/mL
6,C/C(=N\N=C(N)N)c1ccccc1,> 26.4 µg/mL
7,Cc1cc(C)nc(N2C(=O)CC(Cc3ccc(Cl)cc3)C2=O)n1 (stereo not given),> 49.5 µg/mL
8,COc1ccccc1C(=O)NC(=O)CSc1ccc(C)c(C)c1,14 µg/mL
9,COc1ccc2c(c1)[nH]c1c(=O)n(Cc3ccncc3)cnc12,5.1 µg/mL
10,O=[N+]([O-])c1cccc2c(S(=O)(=O)N3CCOCC3)cccc12,35.4 µg/mL
11,COc1ccc(NC(=O)CNC(=O)Cc2ccccc2)cc1OC,> 49.3 µg/mL
12,COCc1cc(NCc2ccc(Cl)cc2)nc(C)n1,34.7 µg/mL
13,COc1cc(C)cc(OC)c1OCC(=O)Nc1cc(C)on1,6.4 µg/mL
14,COc1ccc(C(=O)OCC(=O)c2ccc[nH]2)c(OC)c1,> 43.4 µg/mL
15,COc1ccc(S(=O)(=O)NC2CCCCC2)cc1F,> 43.1 µg/mL
16,Cc1nc(-c2ccc(NC(=O)c3ccco3)cc2)cs1,18.2 µg/mL
17,O=C(c1ccc(Cl)nc1)N1CCN(C/C=C/c2ccccc2)CC1,> 51.3 µg/mL
18,O=C(CNC(=O)Cc1ccc(Cl)cc1)NCc1ccco1,26.4 µg/mL
19,CC[n+]1ccc(/C=C/c2c[nH]c3ccccc23)cc1.[Cl-],32.8 µg/mL
20,COc1cc2c(cc1OC)C(COc1ccc(F)cc1)NCC2 (stereo not given),43.8 µg/mL
21,Nc1nc(SCC(=O)N2CCCC2)[nH]c(=O)c1NC(=O)c1cccs1,> 56.9 µg/mL
22,C=Cn1cc[n+](CC(=O)c2ccc(Cl)cc2)c1.[Br-],43.3 µg/mL
23,Cc1cc(C)[n+](-c2ccc(Oc3ccccc3)c(S(=O)(=O)[O-])c2)[nH]1,> 51.7 µg/mL
24,CCN(C(=O)c1ccco1)C1C2CC3CC(C2)CC1C3 (stereo not given),26.1 µg/mL

row,SMILES,solubility kinetic
1,Cn1cccc1C(=O)OCC(=O)c1c[nH]c2ccccc12,9.9 µg/mL
2,Cc1ccc(NC(=S)N2CCc3[nH]c4ccccc4c3C2)cc1,0.8 µg/mL
3,O=C(Nc1cccc(Cl)c1)C1CCN(C(=O)c2cccs2)CC1,48.4 µg/mL
4,COc1ccc(CC(=O)NC(=S)Nc2cccc(C)c2)cc1,4 µg/mL
5,C=C(C)Cn1c(N2CCCC2)nc2c1c(=O)n(C)c(=O)n2C,33.6 µg/mL
6,CC(C)C1CC(CCN)(c2ccccc2)CCO1.O=C(O)C(=O)O (stereo not given),> 50.6 µg/mL
7,CCN1C(=O)c2ccccc2Sc2ccc(C(=O)O)cc21,> 44.9 µg/mL
8,O=C(COc1ccccc1F)Nc1ccc2[nH]c(=O)[nH]c2c1,4.5 µg/mL
9,CCC1CN(C(=O)NCc2ccc(F)cc2)c2ccccc2O1 (stereo not given),37.4 µg/mL
10,Cl.O=S(=O)(NCCN1CCOCC1)c1cccs1,> 46.9 µg/mL
11,CCCC(=O)Nc1ccc(C(=O)COC(=O)C2CC2C)cc1 (stereo not given),14 µg/mL
12,COc1ccc(CNC(=S)Nc2ccccc2)cc1,> 40.9 µg/mL
13,C=CCN(C(=O)COC(=O)c1cc[n+]([O-])cc1)c1nc(-c2ccccc2)cs1,6.1 µg/mL
14,COc1ccc(OC)c(C(=O)Cn2cnc3ccccc3c2=O)c1,0.9 µg/mL
15,O=S(=O)(c1ccc(Cl)cc1)N1CCC2(CC1)OCCO2,> 47.7 µg/mL
16,CCOc1ccccc1-c1noc(CCC(=O)NC2CCCCC2)n1,46.2 µg/mL
17,COc1ccc(C(=O)n2cnc3ccccc32)cc1,> 37.8 µg/mL
18,CSc1sc(C(=O)N2CCCCC2)c(-c2cccs2)c1C#N,31.6 µg/mL
19,CC(C)c1nc2oc3c(NCCO)ncnc3c2c2c1COC(C)(C)C2,48.9 µg/mL
20,Cc1ccc(C(=O)O)cc1NCc1ccncc1,> 36.3 µg/mL
21,CCN1CCN(c2ccc(N)c(C)c2)CC1,28.7 µg/mL
22,CN(C)c1ccc(C2NC(=O)c3ccccc3N2)cc1 (stereo not given),8.8 µg/mL
23,CCCC/C(=N/O)c1c(C)[nH]c2ccccc12,30.7 µg/mL
24,COC(=O)c1ccc(CNC(=O)COC(=O)CCC(=O)c2ccc(F)cc2)cc1,5.5 µg/mL

row,SMILES,solubility kinetic
1,Cc1c(C(=O)O)nn(-c2cccc(C(F)(F)F)c2)c(=O)c1C#N,> 48.5 µg/mL
2,COCCCn1c(=O)c2sccc2n(Cc2ccccc2)c1=O,49.4 µg/mL
3,CN(c1ccccc1)c1nc(N)c([N+](=O)[O-])c(NCCO)n1,42.9 µg/mL
4,COC(=O)C1C(O)=C(C=Nc2ccccc2)C(=O)CC1(C)C (stereo not given),> 45.2 µg/mL
5,O=C(c1cc(-c2ccccc2)nc2ccccc12)N1CCCC1,42 µg/mL
6,Cc1ccc(F)c(NC(=O)c2c(-c3ccccc3)noc2C)c1,2.2 µg/mL
7,CS(=O)(=O)c1ccc(NCCc2ccccn2)c([N+](=O)[O-])c1,44.2 µg/mL
8,COc1ccc(C(=O)Nc2ccc(CN3CCCCC3)cc2)cc1,> 48.7 µg/mL
9,Cc1ccc(C(=O)NCCCNC(=O)c2ccco2)cc1,> 42.9 µg/mL
10,O=C(Nc1nccs1)c1cccc(NC(=O)C(F)(F)F)c1,38.8 µg/mL
11,O=C(NCc1ccccc1)c1cc[n+]([O-])cc1,> 34.2 µg/mL
12,CN(Cc1ccccc1)C(=O)N1CCOCC1,> 35.1 µg/mL
13,Cc1onc(-c2ccccc2Cl)c1C(=O)N1CCC(C)CC1,> 47.8 µg/mL
14,CCC/C(O)=C1\C(=O)CCCC1=NCCc1c(C)[nH]c2ccccc12,34.4 µg/mL
15,Cc1cc(NC(=O)Nc2cccc([N+](=O)[O-])c2)no1,2.2 µg/mL
16,O=C(Nc1nc2ccccc2[nH]1)c1cccc(Cl)c1,< 0.2 µg/mL
17,Cc1cnc(NC(=O)C2CC=CCC2)s1 (stereo not given),23.9 µg/mL
18,CC(=O)Nc1nc(C)c(C(C)(C)C)s1,> 31.8 µg/mL
19,Cc1nc(Cl)sc1C(=O)Nc1ccccc1Cl,21.7 µg/mL
20,Cc1ccc(C(=O)O)cc1NC(=S)NCCc1ccccc1,> 47.2 µg/mL
21,COc1cc(CN2CCc3c([nH]c4ccccc34)C2)cc(OC)c1,26 µg/mL
22,COC(=O)c1sccc1-c1ccc(/C=N/OC(=O)c2cccs2)o1,< 0.8 µg/mL
23,COC(=O)C1CCN(C(=O)COC(=O)c2cc(S(=O)(=O)N3CCOCC3)ccc2C)CC1,> 70.3 µg/mL
24,Cl.Oc1ccc(-c2csc(Nc3cccc4ccccc34)n2)cc1O,15.2 µg/mL

# Source: PubChem BioAssay AID1996
